# Measured values: ChEMBL document CHEMBL5360625, “Design, Synthesis, and Antitumor Activity Evaluation of 2-Arylmethoxy-4-(2,2'-dihalogen-substituted biphenyl-3-ylmethoxy) Benzylamine Derivatives as Potent PD-1/PD-L1 Inhibitors” (J Med Chem, 2023)
# Assays:
# [1] = target: Programmed cell death protein 1/Programmed cell death 1 ligand 1 (Homo sapiens, UniProt Q9NZQ7); experiment: Inhibition of PD-1/PD-L1 interaction (unknown origin) incubated for 1 hr by HTRF assay; type: protein-complex assay
# [2] = tested on: PBMC; experiment: Cytotoxicity against human PBMC cells assessed as reduction in cell viability at 1 to 4 uM measured after 48 hrs by CCK-8 assay; type: toxicity, cell-based; settings: dose 1-4 µM
# Sequence of Programmed cell death protein 1/Programmed cell death 1 ligand 1 (Q15116 whole entry): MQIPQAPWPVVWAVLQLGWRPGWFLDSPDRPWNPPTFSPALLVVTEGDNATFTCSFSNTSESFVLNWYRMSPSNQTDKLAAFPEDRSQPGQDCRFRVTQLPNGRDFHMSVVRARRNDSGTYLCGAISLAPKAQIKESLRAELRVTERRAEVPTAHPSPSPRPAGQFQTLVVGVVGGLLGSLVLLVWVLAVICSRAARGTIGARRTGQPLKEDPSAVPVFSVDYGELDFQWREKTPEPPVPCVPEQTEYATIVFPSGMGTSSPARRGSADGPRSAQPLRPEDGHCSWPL
# Sequence of Programmed cell death protein 1/Programmed cell death 1 ligand 1 (Q9NZQ7 whole entry): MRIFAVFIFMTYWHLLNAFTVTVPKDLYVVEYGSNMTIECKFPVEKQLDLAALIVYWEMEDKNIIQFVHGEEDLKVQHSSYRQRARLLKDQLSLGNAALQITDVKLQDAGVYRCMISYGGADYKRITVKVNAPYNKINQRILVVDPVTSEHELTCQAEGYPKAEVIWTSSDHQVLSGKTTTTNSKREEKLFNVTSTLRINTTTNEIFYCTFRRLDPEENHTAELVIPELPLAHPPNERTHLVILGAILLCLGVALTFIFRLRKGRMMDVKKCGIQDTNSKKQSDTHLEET
Structure (SMILES),IC50 [1],Activity [2]
COc1c(COc2ccc(CNCCNC(C)=O)c(OCc3cccc(C#N)c3)c2)cccc1-c1cccc(F)c1,5.5 µM,
COc1c(NCc2ccc(OCc3cccc(C#N)c3)c(CNCCNC(C)=O)c2)cccc1-c1ccccc1,> 32 µM,
COc1c(COc2ccc(CNCCNC(C)=O)c(OCc3cccc(C#N)c3)c2)cccc1-c1ccccc1Cl,3.6 µM,
COc1c(NCc2ccc(OCc3ccc(F)cc3)c(CNCCO)c2)cccc1-c1ccc2cc[nH]c2c1,> 32 µM,
COc1c(COc2ccc(CNCCO)c(OCc3ccc(F)cc3)c2)cccc1-c1ccccc1,8.6 µM,
COc1c(COc2ccc(CN3CC(C(=O)O)C3)c(OCc3cncc(C#N)c3)c2)cccc1-c1ccccc1,4.7 µM,
COc1c(COc2cc(OCc3cncc(C#N)c3)c(CNCCO)cc2Cl)cccc1-c1ccccc1F,348 µM,
Cc1c(COc2ccc(CNCCO)c(OCc3cccc(C#N)c3)c2)cccc1-c1ccccc1F,37.6 µM,
COc1c(NCc2ccc(OCc3cccc(C#N)c3)c(CNCCO)c2)cccc1-c1ccccc1,32 µM,
COc1c(NCc2ccc(OCc3ccc(F)cc3)c(CNCCO)c2)cccc1-c1ccccc1,> 32 µM,
N#Cc1cccc(COc2cc(OCc3cccc(-c4ccccc4F)c3Cl)ccc2CN2CC(C(=O)O)C2)c1,33.6 µM,
COc1c(COc2ccc(CNCCNC(C)=O)c(OCc3cccnc3)c2)cccc1-c1ccccc1,9.4 µM,
COc1cc(COc2cc(OCc3cccc(-c4ccccc4)c3OC)ccc2CNCCNC(C)=O)ccn1,13.7 µM,
N#Cc1cccc(COc2cc(OCc3cccc(-c4ccccc4F)c3F)ccc2CNCCO)c1,130 µM,
COc1c(COc2ccc(CN[C@@H](CO)C(=O)O)c(OCc3cccc(C#N)c3)c2)cccc1-c1ccccc1F,2130 µM,
COc1c(COc2ccc(CNCCNC(C)=O)c(OCc3ccc(F)cc3)c2)cccc1-c1ccccc1,> 32 µM,
COc1c(COc2ccc(CN[C@@H](CO)C(=O)O)c(OCc3cncc(C#N)c3)c2)cccc1-c1ccccc1F,616 µM,
COc1c(COc2ccc(CNCCNC(C)=O)c(OCc3cncc(C#N)c3)c2)cccc1-c1ccccc1F,1000 µM,
COc1c(COc2ccc(CN[C@H](CO)C(=O)O)c(OCc3cccc(C#N)c3)c2)cccc1-c1ccccc1,3.2 µM,
CC(=O)NCCNCc1ccc(OCc2cccc(-c3ccccc3F)c2C)cc1OCc1cncc(C#N)c1,24.3 µM,Non-Toxic
N#Cc1cccc(COc2cc(OCc3cccc(-c4ccccc4F)c3Cl)ccc2CNCCO)c1,12.7 µM,Non-Toxic
COc1c(NCc2ccc(OCc3cccc(C#N)c3)c(CNCCNC(C)=O)c2)cccc1-c1ccc2ccccc2c1,> 32 µM,
Cc1c(COc2ccc(CNCCO)c(OCc3cncc(C#N)c3)c2)cccc1-c1ccccc1F,8.5 µM,Non-Toxic
N#Cc1cccc(COc2cc(OCc3cccc(-c4ccccc4F)c3Cl)ccc2CN2CCC(O)C2)c1 (stereo not given),19.2 µM,Non-Toxic
COc1c(COc2ccc(CNCCNC(C)=O)c(OCc3cccc(C#N)c3)c2)cccc1-c1ccccc1,23.3 µM,
COC(=O)c1ccc(COc2ccc(CNc3cccc(-c4ccccc4)c3OC)cc2CNCCO)cc1,> 32 µM,
COc1c(COc2ccc(CNCCO)c(OCc3cccc(C#N)c3)c2)cccc1-c1ccccc1,2.4 µM,
COc1c(COc2ccc(CNCCNC(C)=O)c(OCc3cccc(C)c3)c2)cccc1-c1ccccc1,18.3 µM,
COc1c(COc2ccc(CNCCO)c(OCc3cccc(C#N)c3)c2)cccc1-c1ccccc1F,1660 µM,
N#Cc1cncc(COc2cc(OCc3cccc(-c4ccccc4F)c3Cl)ccc2CN[C@@H](CO)C(=O)O)c1,7.3 µM,Non-Toxic
